In patent publication US10457663B2, “Pyrazol-pyridine derivatives” (Hoffmann-La Roche Inc., priority 2016, dated 2019):

How the values were obtained:
human EAAT3 = biological target: T1, human EAAT3 (Homo sapiens, UniProt P43005); assay: FLIPR Membrane Potential (FMP) assay; assay type: cell-based; settings: HEK-293 cells stably expressing human EAAT3; L-glutamate as agonist at EC80; antagonist applied 15 min before; Kb by Cheng-Prusoff from IC50
T1 construct: expressed in transfected cells; host or cells: HEK-293
T1 sequence (P43005 1-524): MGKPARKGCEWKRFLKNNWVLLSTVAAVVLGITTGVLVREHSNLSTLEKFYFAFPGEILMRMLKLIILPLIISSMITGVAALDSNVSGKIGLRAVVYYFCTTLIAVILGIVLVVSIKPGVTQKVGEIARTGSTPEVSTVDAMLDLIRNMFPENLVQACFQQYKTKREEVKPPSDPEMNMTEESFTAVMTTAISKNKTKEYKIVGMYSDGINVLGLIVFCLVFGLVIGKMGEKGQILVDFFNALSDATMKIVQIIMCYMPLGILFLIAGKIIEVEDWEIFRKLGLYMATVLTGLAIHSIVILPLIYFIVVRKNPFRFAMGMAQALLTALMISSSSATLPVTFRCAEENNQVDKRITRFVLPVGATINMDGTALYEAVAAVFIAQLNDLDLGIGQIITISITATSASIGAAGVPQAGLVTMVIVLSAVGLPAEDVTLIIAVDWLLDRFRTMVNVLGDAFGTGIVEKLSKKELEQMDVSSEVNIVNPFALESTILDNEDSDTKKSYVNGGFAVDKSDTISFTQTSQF
Protocol: The FLIPR Membrane Potential (FMP) assay
HEK-293 cells stably expressing human EAAT3 were seeded at 55 000 cells/well in growth medium (DMEM glutamate free (Invitrogen 11960-044), 1% Pen Strep (10 ml/l GIBCO BRL N^o 15140-023), 10% FCS non dialysed heat inactivated, 5 mg/l puromycin) in poly-D-lysine treated 96-well black microtiter plates with clear-bottom. After 24 h, the growth medium was removed and 100 μl/well of Krebs buffer (140 mM NaCl, 4.7 mM KCl, 2.5 mM CaCl2), 1.2 mM MgCl2, 11 mM HEPES, 10 mM D-glucose, pH=7.4) added. The cells were then loaded by adding 100 μl/well FMP assay dye (FLIPR Membrane Potential assay reagent, Molecular Devices). The 96-well plates were then incubated at 37° C. for 1 h. The depolarization of the cells will cause more dye to enter in the cells, where it will bind to intracellular proteins and lipids and cause an increase in the fluorescence signal. Antagonist potency at human EAAT3 was determined by using L-glutamate as agonist at a concentration which gives 80% of the maximum response. The antagonists were applied 15 min before the application of the agonist L-glutamate. The assays were performed at room temperature and measurements done by using a Fluorometric Imaging Plate Reader (FLIPR, Molecular Devices) and filter #2. Responses were measured as peak increase in fluorescence minus basal (i.e. fluorescence without addition of L-glutamate). Kb was determined using the Cheng-Prusoff equation Kb=IC50/[1+(A/EC50)], where IC50 is the concentration of the antagonist producing 50% inhibition, A is the concentration of the agonist against which the IC50 is being determined (at EC80) and EC50 is the concentration of the agonist producing 50% […].

SMILES | Kb (human EAAT3) | melting point
CC1(NC(=O)c2cc(-c3ccc(F)cc3)nc(-c3ccnn3C(C)(C)C)c2)CCS(=O)(=O)C1 (racemic) [Example 9, (RS)-2-(2-tert-Butylpyrazol-3-yl)-6-(4-fluorophenyl)-N-(3-methyl-1,1-dioxothiolan-3-yl)-pyridine-4-carboxamide] | 190 nM | 192 °C
CC(C)n1nccc1-c1cc(C(=O)NC2(C)CCS(=O)(=O)C2)cc(-c2ccc(F)cc2)n1 (racemic) [Example 43, (RS)-2-(4-Fluorophenyl)-N-(3-methyl-1,1-dioxothiolan-3-yl)-6-(2-propan-2-yl-pyrazol-3-yl)-pyridine-4-carboxamide] | 530 nM | –
Cn1nccc1-c1cc(C(=O)NC(C)(C)C)cc(-c2ccc(Cl)cc2)n1 [Example 1, N-tert-Butyl-2-(4-chlorophenyl)-6-(2-methyl-pyrazol-3-yl)-pyridine-4-carboxamide] | 370 nM | 184 °C
Cn1nccc1-c1cc(C(=O)NC(C)(C)C)cc(-c2ccc(F)cc2)n1 [Example 2, N-tert-Butyl-2-(4-fluorophenyl)-6-(2-methyl-pyrazol-3-yl)-pyridine-4-carboxamide] | 560 nM | 161 °C
CC(C)(C)NC(=O)c1cc(-c2ccc(F)cc2)nc(-c2ccnn2C(C)(C)C)c1 [Example 3, N-tert-Butyl-2-(2-tert-butyl-pyrazol-3-yl)-6-(4-fluorophenyl)-pyridine-4-carboxamide] | 65 nM | 226 °C
CC(C)(C)NC(=O)c1cc(-c2ccc(Cl)cc2)nc(-c2ccnn2C(C)(C)C)c1 [Example 4, N-tert-Butyl-2-(2-tert-butyl-pyrazol-3-yl)-6-(4-chlorophenyl)-pyridine-4-carboxamide] | 160 nM | 204 °C
CC(C)(C)NC(=O)c1cc(-c2ccc(C(F)(F)F)cc2)nc(-c2ccnn2C(C)(C)C)c1 [Example 5, N-tert-Butyl-2-(2-tert-butyl-pyrazol-3-yl)-6-[4-(trifluoromethyl)-phenyl]-pyridine-4-carboxamide] | 290 nM | 222 °C
CC(C)n1nccc1-c1cc(C(=O)NC(C)(C)C)cc(-c2ccc(C(F)(F)F)cc2)n1 [Example 6, N-tert-Butyl-2-(2-propan-2-yl-pyrazol-3-yl)-6-[4-(trifluoromethyl)-phenyl]-pyridine-4-carboxamide] | 450 nM | 173 °C
CC(C)n1nccc1-c1cc(C(=O)NC(C)(C)C)cc(-c2ccc(Cl)cc2)n1 [Example 7, N-tert-Butyl-2-(4-chlorophenyl)-6-(2-propan-2-yl-pyrazol-3-yl)-pyridine-4-carboxamide] | 370 nM | 207 °C
CC(C)n1nccc1-c1cc(C(=O)NC(C)(C)C)cc(-c2ccc(F)cc2)n1 [Example 8, N-tert-Butyl-2-(4-fluorophenyl)-6-(2-propan-2-yl-pyrazol-3-yl)-pyridine-4-carboxamide] | 260 nM | 200 °C
CCC(C)(C)NC(=O)c1cc(-c2ccc(F)cc2)nc(-c2ccnn2C(C)(C)C)c1 [Example 10, 2-(2-tert-Butylpyrazol-3-yl)-6-(4-fluorophenyl)-N-(2-methylbutan-2-yl)-pyridine-4-carboxamide] | 140 nM | 154 °C
CC(C)(C)NC(=O)c1cc(-c2ccc(C3CC3)cc2)nc(-c2ccnn2C(C)(C)C)c1 [Example 17, N-tert-Butyl-2-(2-tert-butyl-pyrazol-3-yl)-6-(4-cyclopropyl-phenyl)-pyridine-4-carboxamide] | 110 nM | –
CC(C)(C)NC(=O)c1cc(-c2ccc(C#N)cc2)nc(-c2ccnn2C(C)(C)C)c1 [Example 18, N-tert-Butyl-2-(2-tert-butyl-pyrazol-3-yl)-6-(4-cyano-phenyl)-pyridine-4-carboxamide] | 89 nM | –
CC(C)(C)NC(=O)c1cc(-c2ccc(F)c(Cl)c2)nc(-c2ccnn2C(C)(C)C)c1 [Example 21, N-tert-Butyl-2-(2-tert-butyl-pyrazol-3-yl)-6-(3-chloro-4-fluoro-phenyl)-pyridine-4-carboxamide] | 110 nM | –
COc1ccc(-c2cc(C(=O)NC(C)(C)C)cc(-c3ccnn3C(C)(C)C)n2)cc1 [Example 23, N-tert-Butyl-2-(2-tert-butyl-pyrazol-3-yl)-6-(4-methoxy-phenyl)-pyridine-4-carboxamide] | 85 nM | –
Cc1cc(-c2cc(C(=O)NC(C)(C)C)cc(-c3ccnn3C(C)(C)C)n2)ccc1F [Example 25, N-tert-Butyl-2-(2-tert-butyl-pyrazol-3-yl)-6-(4-fluoro-3-methyl-phenyl)-pyridine-4-carboxamide] | 74 nM | –
CC(C)n1nccc1-c1cc(C(=O)NC(C)(C)C)cc(-c2ccc(C3CC3)cc2)n1 [Example 29, N-tert-Butyl-2-(4-cyclopropyl-phenyl)-6-(2-propan-2-yl-pyrazol-3-yl)-pyridine-4-carboxamide] | 560 nM | –
CC(C)n1nccc1-c1cc(C(=O)NC(C)(C)C)cc(-c2ccc(C#N)cc2)n1 [Example 30, N-tert-Butyl-2-(4-cyano-phenyl)-6-(2-propan-2-yl-pyrazol-3-yl)-pyridine-4-carboxamide] | 1870 nM | –
CC(C)n1nccc1-c1cc(C(=O)NC(C)(C)C)cc(-c2ccc(F)c(F)c2)n1 [Example 31, N-tert-Butyl-2-(3,4-difluoro-phenyl)-6-(2-propan-2-yl-pyrazol-3-yl)-pyridine-4-carboxamide] | 240 nM | –
CC(C)c1ccc(-c2cc(C(=O)NC(C)(C)C)cc(-c3ccnn3C(C)C)n2)cc1 [Example 32, N-tert-Butyl-2-(4-propan-2-yl-phenyl)-6-(2-propan-2-yl-pyrazol-3-yl)-pyridine-4-carboxamide] | 1180 nM | –
CC(C)n1nccc1-c1cc(C(=O)NC(C)(C)C)cc(-c2ccc(F)c(Cl)c2)n1 [Example 33, N-tert-Butyl-2-(3-chloro-4-fluorophenyl)-6-(2-propan-2-yl-pyrazol-3-yl)-pyridine-4-carboxamide] | 530 nM | –
Cc1ccc(-c2cc(C(=O)NC(C)(C)C)cc(-c3ccnn3C(C)C)n2)cc1 [Example 34, N-tert-Butyl-2-(4-methyl-phenyl)-6-(2-propan-2-yl-pyrazol-3-yl)-pyridine-4-carboxamide] | 260 nM | –
COc1ccc(-c2cc(C(=O)NC(C)(C)C)cc(-c3ccnn3C(C)C)n2)cc1 [Example 35, N-tert-Butyl-2-(4-methoxy-phenyl)-6-(2-propan-2-yl-pyrazol-3-yl)-pyridine-4-carboxamide] | 360 nM | –
CC(C)n1nccc1-c1cc(C(=O)NC(C)(C)C)cc(-c2ccc(Cl)c(F)c2)n1 [Example 36, N-tert-Butyl-2-(4-chloro-3-fluorophenyl)-6-(2-propan-2-yl-pyrazol-3-yl)-pyridine-4-carboxamide] | 230 nM | –
Cc1ccc(-c2cc(C(=O)NC(C)(C)C)cc(-c3ccnn3C(C)C)n2)cc1F [Example 38, N-tert-Butyl-2-(3-fluoro-4-methyl-phenyl)-6-(2-propan-2-yl-pyrazol-3-yl)-pyridine-4-carboxamide] | 400 nM | –
CC(C)n1nccc1-c1cc(C(=O)NC(C)(C)C#N)cc(-c2ccc(F)cc2)n1 [Example 45, N-(2-Cyanopropan-2-yl)-2-(4-fluorophenyl)-6-(2-propan-2-yl-pyrazol-3-yl)-pyridine-4-carboxamide] | 450 nM | –
